The test system of assay [1] is MOLM-13 cells. Description: MOLM-13 96 Hour Cell Proliferation Assay. The assay is classed as cell-based. The conditions noted are these: Homo sapiens. Put shortly:
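MOLM-13 cells in RPMI 1640 with 10% FBS were plated overnight at 37 °C, then exposed to compound dilutions at 0.25% DMSO final for 96 h. Viability was read by CellTiter-Glo luminescence, normalised to staurosporine (100% death) and DMSO (0% death) controls, and IC50 was fitted by 4-parameter logistic regression.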

Assay [2] has as its system MOLM-13 cells. Description: MOLM-13 48 Hour Cell Proliferation Assay. The assay is classed as cell-based. The following applies: Homo sapiens. Summed up:
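IC50 derived by 4-parameter logistic regression of CellTiter-Glo luminescence, scaled between DMSO (0% death) and staurosporine (100% death) controls. Compounds applied for 48 h at 37 °C as 10-point, 4-fold dilutions, 0.25% DMSO final, to MOLM-13 cells pre-seeded overnight in RPMI 1640 plus 10% FBS.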

The target in the next assay is METTL3/METTL14 (Homo sapiens, UniProt Q86U44). The assay can be described thus: METTL3-14 Standard Enzyme Assay (METTL3 biochemical assay). Summed up:
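Tritium transfer from ³H-SAM (100 nM) to biotinylated RNA (100 nM) captured on streptavidin flashplates and counted by scintillation. Enzyme complex (2.5 nM) with compound, 5 min preincubation, 30 min reaction at ambient temperature, HEPES pH 7.5 buffer, stopped by excess unlabeled SAM.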

The mark [3] stands for this setting: METTL3 biochemical assay; read-out: METTL3 IC50.
[4] abbreviates: read-out: METTL3 IC50; METTL3 biochemical assay.

Experimental findings from US20230027361A1, “METTL3 MODULATORS” (priority 2019, published 2023) are described below.

Where two headings read alike, the source gives them in different places. Bounds are passed on as bounds.

Chain of METTL3/METTL14 (Q86U44 whole entry, species assumed): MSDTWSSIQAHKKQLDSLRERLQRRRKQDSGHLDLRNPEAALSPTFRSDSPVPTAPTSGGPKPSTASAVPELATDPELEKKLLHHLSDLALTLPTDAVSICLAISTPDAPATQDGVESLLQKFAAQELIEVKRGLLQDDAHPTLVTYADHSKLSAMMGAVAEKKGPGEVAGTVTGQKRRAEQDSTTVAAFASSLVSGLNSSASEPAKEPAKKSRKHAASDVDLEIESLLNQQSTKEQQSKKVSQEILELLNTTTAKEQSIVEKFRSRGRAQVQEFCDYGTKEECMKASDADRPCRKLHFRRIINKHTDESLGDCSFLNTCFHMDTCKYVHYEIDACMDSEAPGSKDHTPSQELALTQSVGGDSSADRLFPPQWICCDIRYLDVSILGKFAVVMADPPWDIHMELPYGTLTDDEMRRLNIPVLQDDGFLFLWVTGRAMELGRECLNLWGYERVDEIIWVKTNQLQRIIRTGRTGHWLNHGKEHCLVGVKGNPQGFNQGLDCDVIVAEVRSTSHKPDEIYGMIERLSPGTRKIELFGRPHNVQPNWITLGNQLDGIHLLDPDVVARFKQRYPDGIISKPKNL
Chain of METTL3/METTL14 (Q9HCE5 whole entry partner, species assumed): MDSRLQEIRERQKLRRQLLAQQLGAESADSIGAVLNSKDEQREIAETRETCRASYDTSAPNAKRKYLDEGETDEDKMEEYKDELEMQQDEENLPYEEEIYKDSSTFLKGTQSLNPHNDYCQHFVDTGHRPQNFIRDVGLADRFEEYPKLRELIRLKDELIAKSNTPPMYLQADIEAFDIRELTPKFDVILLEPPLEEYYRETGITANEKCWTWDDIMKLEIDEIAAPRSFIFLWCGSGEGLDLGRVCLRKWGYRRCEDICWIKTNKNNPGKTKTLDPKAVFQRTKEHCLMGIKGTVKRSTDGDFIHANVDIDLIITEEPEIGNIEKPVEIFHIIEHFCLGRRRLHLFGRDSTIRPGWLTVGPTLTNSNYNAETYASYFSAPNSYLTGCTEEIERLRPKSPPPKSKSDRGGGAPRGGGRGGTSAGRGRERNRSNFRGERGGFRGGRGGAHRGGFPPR

Usually IC50 stands for the concentration at which inhibition is half-maximal. For the compound `CNc1ccc2ccc(CC[C@H]3O[C@@H](n4cc(C5CCCC5)c5c(N)ncnc54)[C@H](O)[C@@H]3O)cc2n1` [I-39], the IC50 is below 1000 nM with MOLM-13 cells [1] (MOLM-13, 96 h); 1000 to 10000 nM with MOLM-13 cells [2]; below 10 nM on METTL3/METTL14 (setting [3]).
Turning to `CCNc1ccc2ccc(OC[C@H]3O[C@@H](n4cc(-c5cn(C)cn5)c5c(N)ncnc54)[C@@H](F)[C@@H]3O)cc2n1` [I-10], the half-maximal inhibitory concentration (IC50) was below 1000 nM with MOLM-13 cells [1], 1000 to 10000 nM in the assay on MOLM-13 cells [2] and below 10 nM on METTL3/METTL14 (setting [4]).
With `CNc1ccc2ccc(OC[C@H]3O[C@@H](n4cc(CC5CCCC5)c5c(N)ncnc54)[C@H](O)[C@@H]3O)cc2n1` [I-23], the figures for the IC50 with MOLM-13 cells [2] and at METTL3/METTL14 (setting [3]) were above 10000 nM and below 10 nM, respectively.
`CNc1ccc2ccc(OC[C@H]3O[C@@H](n4cc(C5CCCC5)c5c(N)ncnc54)[C@H](O)[C@@H]3O)cc2n1` [I-33, (2R,3R,4S,5R)-2-(4-amino-5-cyclopentyl-7H-pyrrolo[2,3-d]pyrimidin-7-yl)-5-(((2-(methylamino)quinolin-7-yl)oxy)methyl)tetrahydrofuran-3,4-diol]: the IC50 with MOLM-13 cells [1] (MOLM-13, 96 h) was below 1000 nM; in the assay on MOLM-13 cells [2] it was 1000 to 10000 nM; on METTL3/METTL14 (setting [3]), below 10 nM.
Turning to `Cn1ccc(-c2cn([C@@H]3O[C@H](COc4ccc5ccc(N6CCC6)nc5c4)[C@@H](O)[C@@H]3F)c3ncnc(N)c23)n1` [I-149], the IC50 is below 1000 nM with MOLM-13 cells [1] (MOLM-13, 96 h); below 1000 nM in the assay with MOLM-13 cells [2]; below 10 nM on METTL3/METTL14 (setting [4]).
On to `CNc1ccc2ccc(OC[C@H]3O[C@@H](n4cc(-c5ccn(C)n5)c5c(N)ncnc54)[C@@H](F)[C@@H]3O)cc2n1` [I-12], for which the IC50 in the assay with MOLM-13 cells [1] is below 1000 nM; with MOLM-13 cells [2] it was below 1000 nM; on METTL3/METTL14 (setting [4]), below 10 nM.
Take `CNc1ccc2ccc(OC[C@H]3O[C@@H](n4cc(Br)c5c(N)ncnc54)[C@H](O)[C@@H]3O)cc2n1` [I-73]: the IC50 in the assay on MOLM-13 cells [1] (MOLM-13, 96 h) was below 1000 nM; in the assay on MOLM-13 cells [2], 1000 to 10000 nM; on METTL3/METTL14 (setting [3]), below 10 nM.
The like results for `CNc1ccc2ccc(OC[C@H]3O[C@@H](n4cc(Cl)c5c(N)ncnc54)[C@H](O)[C@@H]3O)cc2n1` [I-70] were, in that order, below 1000 nM, 1000 to 10000 nM and below 10 nM.
As to `CNc1ccc2ccc(OC[C@H]3O[C@@H](n4cc(CC5CC5)c5c(N)ncnc54)[C@@H](F)[C@@H]3O)cc2n1` [I-36], the IC50 is below 1000 nM in the assay on MOLM-13 cells [1] (MOLM-13, 96 h); 1000 to 10000 nM in the assay with MOLM-13 cells [2]; below 10 nM on METTL3/METTL14 (setting [3]).
For the compound `CNc1ccc2ccc(OC[C@H]3O[C@@H](n4cc(C5CC5)c5c(N)ncnc54)[C@@H](F)[C@@H]3O)cc2n1` [I-29], the IC50 in the assay with MOLM-13 cells [1] (MOLM-13, 96 h) was below 1000 nM; in the assay with MOLM-13 cells [2], below 1000 nM; at METTL3/METTL14 (setting [3]), below 10 nM.
